According to patent US8202887B2, “2-(substituted-amino)-benzothiazole sulfonamide HIV protease inhibitors” (Janssen R&D Ireland, priority 2006, dated 2012):

Key:
Beagle dogs [1] = assay: Hypersensitivity testing: erythema and edema in dogs, single dose; type: in vivo; details: for induction of erythema and/or edema: single dose experiments in dogs, summary in words
Procedure: (§1) Studies were carried out to test for the occurrence of erythema and edema in dogs. The compound having structural formula (II) was orally administered to Beagle dogs in an appropriate formulation as a single-dose, dose-escalating study design. In order to achieve high systemic exposures, a so-called booster compound was co-administered (ritonavir, RTV). Blood samples were taken at regular time points following the dosing. Clinical signs were recorded at least once daily for the treatment period and follow up (for at least 24 hours). Symptoms were graded on a […], with 0 being absence of symptoms, 1 mild, 2, moderate, 3 severe, 4 very severe. Special attention was paid to the occurrence of erythema and edema.

[2] = system: wild type laboratory HIV strain (WT IIIB-2-001); assay: Cellular anti-viral assay in MT4-LTR-EGFP cells, wild type strain; type: cell-based; details: Human immunodeficiency virus 1, IIIB, 72 h; MT4-LTR-EGFP cells, three days, GFP signal; read-out: pEC50 WT-IIIB-2-001 (converted)
Procedure: The compounds were tested in a cellular assay using the MT4-LTR-EGFP cells for anti-viral activity.
The cellular assay was performed according to the following procedure. HIV- or mock-infected MT4-LTR-EGFP cells were incubated for three days in the presence of various concentrations of the compounds according to the invention. Upon infection, the viral tat protein activates the GFP reporter. At the end of the incubation period, the GFP signal was measured. […] The inhibitory activity of the compound was monitored on the virus-infected cells and was expressed as EC50. These values represent the amount of the compound required to protect 50% of the cells from virus infection.

[3] = Pharmacokinetics of compound II and boosting effect of ritonavir in fed male beagle dogs; type: in vivo; details: for AUC(0-inf) / Cmax: male, beagle, dog, plasma, po
Procedure: Pharmacokinetics of Compound II and Boosting Effect of Ritonavir in Fed Male Beagle Dogs after Single Oral Administration of Compound II at 10 or 40 mg/kg.
The present study was performed to study the plasma pharmacokinetics of compound II in male beagle dogs after single oral administration doses of 10 and 40 mg/kg, and to evaluate the potential boosting effect of ritonavir, dosed at 10 mg/kg twice daily, on the bioavailability of compound II.
Beagle dogs (7-11 kg body weight) were dosed after feeding. Both compound II and ritonavir were given by gavage of an oral solution. All animals first received compound II alone, and after a washout of one week, the combination of ritonavir and compound II in the morning. Ritonavir dosing was repeated in the evening and on the next day's morning. Plasma was sampled to measure compound II and ritonavir concentrations until 32 hours after dosing of compound II.

[4] = system: clinically isolated HIV strain B; assay: Cellular anti-viral assay in MT4-LTR-EGFP cells, mutant strain B; type: cell-based; details: Human immunodeficiency virus 1, 72 h, read-out: pEC50 virus strain B (converted)
Procedure: (§2) Because of the increasing emergence of drug resistant HIV strains, the present compounds were tested for their potency against clinically isolated HIV strains harboring several mutations. These mutations are associated with resistance to protease inhibitors and result in viruses that show various degrees of phenotypic cross-resistance to the currently commercially available drugs such as for instance saquinavir, ritonavir, nelfinavir, indinavir and amprenavir. The viral strains coded as A, B, C and D contain mutations as indicated below in Table 2.
(§3) The cellular assay was performed according to the following procedure. HIV- or mock-infected MT4-LTR-EGFP cells were incubated for three days in the presence of various concentrations of the compounds according to the invention. Upon infection, the viral tat protein activates the GFP reporter. At the end of the incubation period, the GFP signal was measured. In the virus control samples (in the absence of any inhibitor) the maximal fluorescent signal was obtained. The inhibitory activity of the compound was monitored on the virus-infected cells and was expressed as EC50. These values represent the amount of the compound required to protect 50% of the cells from virus infection. (Table 3).

[5] = system: clinically isolated HIV strain C; assay: Cellular anti-viral assay in MT4-LTR-EGFP cells, mutant strain C; type: cell-based; details: Human immunodeficiency virus 1, 72 h, read-out: pEC50 virus strain C (converted)
Procedure: as §2, §3

[6] = system: clinically isolated HIV strain A; assay: Cellular anti-viral assay in MT4-LTR-EGFP cells, mutant strain A; type: cell-based; details: Human immunodeficiency virus 1, 72 h, read-out: pEC50 virus strain A (converted)
Procedure: as §2, §3

[7] = Plasma exposure (AUC) in single-dose, dose-escalating dog study; type: in vivo, Beagle dogs; details: beagle
Procedure: as §1, with “edema. The concentration of the compound having formula (II) in dog plasma was determined using a LC-MS/MS method. Raw data were used to calculate standard pharmacokinetic parameters (e.g. AUC) as a measure of systemic exposure. The systemic exposure for the compound having formula (II) was compared to the exposure of a reference compound having structural formula (III), in similar single-dose experiments in dogs, in the absence of a booster (ritonavir).” for “edema.”

beagle dog [8] = assay: Single dose escalation/five day repeat dose toxicology study in beagle dog; type: in vivo
Procedure: In a single dose escalation/S day repeat dose dog toxicology study, beagle dogs were treated with compound II according to the current invention at dose levels from 40 up to 144 mg/kg day.

[9] = system: clinically isolated HIV strain D; assay: Cellular anti-viral assay in MT4-LTR-EGFP cells, mutant strain D; type: cell-based; details: Human immunodeficiency virus 1, 72 h, read-out: pEC50 virus strain D (converted)
Procedure: as §2, §3

Beagle dogs [10] = assay: 28 day / 1-month toxicology study in beagle dogs; type: in vivo; details: for erythema and edema after oral administration: summary of toxicology studies up to 1 month in duration, beagle dog
Procedure: These findings occurred shortly after dosing, were transient in nature, maximal between approximately 1 to 2 hours after dosing, disappearing thereafter. There was a large interindividual variation in this response, with no dose-response relationship. Mechanistic studies to clarify the cause for erythema were not indicative of a histamine-based mechanism of action.

beagle dog [11] = assay: Oral 3 month dog toxicology study; type: in vivo
Procedure: In some cases, these symptoms started as maculate erythema and/or nodular swelling and progressed to diffuse/general erythema and swelling. Signs were predominantly visible in areas with thin/sparse fur including the ears, periorbital region and abdomen. The findings were transient, with maximal severity about one hour after dosing and disappearing or decreasing to lower severity by 4 hours post-administration.

[12] = 10 mg/kg, 10 mg/kg compound II single oral, with Ritonavir 10 mg/kg twice daily
[13] = 10 mg/kg, 10 mg/kg compound II single oral, without Ritonavir
[14] = 40 mg/kg compound II single oral, with Ritonavir 10 mg/kg twice daily
[15] = 40 mg/kg, 40 mg/kg compound II single oral, without Ritonavir

With CC(C)CN(C[C@@H](O)[C@H](Cc1ccccc1)NC(=O)O[C@H]1CO[C@H]2OCC[C@H]21)S(=O)(=O)c1ccc2nc(NC3CCN(C4CCCC4)CC3)sc2c1 [Compound 7, (1-benzyl-3-{[2-(1-cyclopentyl-piperidin-4-ylamino)-benzothiazole-6-sulfonyl]-isobutyl-amino}-2-hydroxy-propyl)-carbamic acid hexahydro-furo[2,3-b]furan-3-yl ester] the Erythema/edema (Beagle dogs [1]; oral single dose 20 mg/kg, with ritonavir (RTV) coadministration) was “No”, the Erythema/edema (Beagle dogs [1]; oral single dose 40 mg/kg, with ritonavir (RTV) coadministration) was “No” and the Erythema/edema (Beagle dogs [1]; oral single dose 80 mg/kg, with ritonavir (RTV) coadministration) was “No”. The “induction of erythema and/or edema” value (Beagle dogs [1]) was “did not induce erythema and/or edema”, the EC50 [2] was 13.2 nM and the “Cmax Ratio (with/without Ritonavir)” value ([3]; 10 mg/kg compound II) was 7.1. For the same molecule, the “Relative bioavailability Frel (AUC0-inf with vs without Ritonavir)” value ([3]; 10 mg/kg compound II) was 1378%, the “Cmax Ratio (with/without Ritonavir)” value ([3]; 40 mg/kg compound II) was 3.6 and the “Relative bioavailability Frel (AUC0-inf with vs without Ritonavir)” value ([3]; 40 mg/kg compound II) was 1083%. The “increase of AUC in the presence of ritonavir” value ([3]; 10 and 40 mg/kg compound II) was “over 10 fold”, the “increase of Cmax in the presence of ritonavir” value ([3]; 10 and 40 mg/kg compound II) was 4 to 7 fold and the AUC(0-inf) [3, 12] was 4370 ng·h/mL. For the same molecule, the Cmax [3, 12] was 879 ng/mL, the AUC(0-inf) [3, 13] was 330 ng·h/mL and the Cmax [3, 13] was 123 ng/mL. It also gave an AUC(0-inf) [3, 14] of 23600 ng·h/mL, a Cmax [3, 14] of 4220 ng/mL and an AUC(0-inf) [3, 15] of 2290 ng·h/mL. For the same molecule, the Cmax [3, 15] was 1190 ng/mL, the “total plasma exposure (AUC) and peak plasma concentrations (Cmax) after co-administration with ritonavir” value ([3]; twice-daily dosing of 10 mg/kg ritonavir, in words) was “markedly increased” and the EC50 [4] was 20 nM. For the same molecule, the EC50 [5] was 2880 nM, the EC50 [6] was 11.7 nM and the AUC ([7]; oral single dose 20 mg/kg, with ritonavir (RTV) coadministration, mean of 4 animals) was 7750 ng·h/mL. The AUC ([7]; oral single dose 40 mg/kg, with ritonavir (RTV) coadministration, mean of 4 animals) was 23000 ng·h/mL, the AUC ([7]; oral single dose 80 mg/kg, with ritonavir (RTV) coadministration, mean of 4 animals) was 23000 ng·h/mL and the edema or erythema (beagle dog [8]; dose levels from 40 up to 144 mg/kg day) was “No evidence of edema or erythema”. For the same molecule, the EC50 [9] was 13.5 nM, the Erythema/edema (Beagle dogs [10]; 1-month study, dose levels 5, 20 and 40 mg/kg/day) was “neither erythema nor edema was noted” and the “erythema and edema after oral administration” value (Beagle dogs [10]) was “did not induce erythema and/or edema”.

In the case of CC(C)CN(C[C@@H](O)[C@H](Cc1ccccc1)NC(=O)O[C@H]1CO[C@H]2OCC[C@H]21)S(=O)(=O)c1ccc2nc(NCCN3CCCC3)sc2c1 [Reference compound having formula (III)], the Erythema/edema (Beagle dogs [1]; single dose 10 mg/kg, absence of booster) is reported as “No”, the Erythema/edema (Beagle dogs [1]; single dose 40 mg/kg, absence of booster) is reported as “No” and the Erythema/edema (Beagle dogs [1]; single dose 80 mg/kg, absence of booster) is reported as “Yes”. For the same molecule, the Erythema/edema (Beagle dogs [1]; single dose 120 mg/kg, absence of booster) was “Yes”, the “induction of erythema and/or edema” value (Beagle dogs [1]) was “did induce these clinical signs” and the AUC ([7]; oral, single dose 10 mg/kg, absence of booster, range) was 47 to 238 ng·h/mL. It also gave an AUC ([7]; oral, single dose 40 mg/kg, absence of booster, range) of 3320 to 5090 ng·h/mL, an AUC ([7]; oral, single dose 80 mg/kg, absence of booster, range) of 7370 to 16000 ng·h/mL and an AUC ([7]; oral, single dose 120 mg/kg, absence of booster, range) of 10200 to 27500 ng·h/mL. For the same molecule, the erythema (beagle dog [8]; high dose level 80 mg/kg/day, after five consecutive days of treatment) was “exhibited general erythema”, the “redness of the skin (erythema)” value (Beagle dogs [10]; 28 day study, all dose levels (40, 80, 120 mg/kg/day), most animals) was “slight to severe redness of the skin” and the “onset of erythema symptoms” value (Beagle dogs [10]; 28 day study, dose levels 80 and 120 mg/kg/day) was “present from the start of the study”. The “onset of erythema symptoms” value (Beagle dogs [10]; 28 day study, low dose level 40 mg/kg/day) was “third week”, the “swelling (edema) accompanying erythema” value (Beagle dogs [10]; 28 day study, head, flews, eyes and/or ears, most cases) was “accompanied by swelling (edema)” and the “time after dosing of maximal erythema/edema findings” value (Beagle dogs [10]; 28 day study, transient findings) was 1 to 2 h. The “erythema and edema after oral administration” value (Beagle dogs [10]) was “produced erythema and edema”, the erythema or edema (beagle dog [11]; 10 mg/kg/day) was “No erythema or edema was observed” and the erythema (beagle dog [11]; 40 mg/kg/day, after 5 weeks of treatment) was “one of four males dosed at 40 mg/kg/day exhibited general erythema”. The “erythema of the skin and swelling” value (beagle dog [11]; 120 mg/kg/day, majority of the animals, entire treatment period) was “slight to severe erythema of the skin, accompanied by swelling” and the “time after dosing of maximal severity of erythema/swelling” value (beagle dog [11]; 3 month study, transient findings) was “about one”.
